# Data reported in US20070287676A1, “Diagnosis and treatment of endometriosis” (priority 2006, published 2007).
# Legend:
# [1] = test system: YHES cells (immortalized human endometrial stromal cell line); assay: MTT cell proliferation assay in YHES cells; assay type: cell-based; conditions: 48 hr; for increased cell proliferation: E2 and P pretreated, vs control
# Experimental: An immortalized human endometrial stromal cell line was maintained following Krikun et al. (Krikun et al. 2004 Endocrinology 145:2291-6). Cells were maintained in phenol red-free DMEM/F12 (Gibco, CA) medium supplemented with 10% charcoal-dextran stripped FBS (Biomeda, CA), 1 μl/ml sodium pyruvate (Gibco, CA) and 1× Pen/Strep/Fungizone (Gibco, CA), at 37° C. with 5% C02 in a humidified incubator.
# (§1) The YHES cells were harvested by trypsinization and seeded in 96-well plate at ˜1×10^4 cells/well. The cells were allowed to attach to the plate for overnight at 37° C. with 5% C02 in a humidified incubator. Then they were pretreated with physiological concentration of E2 (10^-9M) and P (10^-7M) for 24 hr to maintain hormonal responsiveness. […] Cell growth was valuated by the MTT assay (ATCC, Manassas, Va.). MTT assay was performing according to the manufacturer's instructions, and in triplicate to generate mean values. Cell numbers in the untreated control were arbitrarily assigned as 1. The relative cell growth was expressed as fold increase/decrease relative to the control. Data were presented as mean values from three independently repeated experiments.
# [2] = test system: YHES cells pretreated with H2O2; assay: H2O2-induced cell proliferation, MTT assay; assay type: cell-based, human; conditions: H2O2 1 μM, 48 hours; for suppression of H2O2-induced cell proliferation: vs H2O2 only
# Experimental: MTT assay was performed after 48 hours of treatment.
# as §1
# The addition of H202 was meant to mimic the oxidative stress as reported in endometriosis. […] RU486 suppressed cell proliferation by 75% at the concentration of 100 μM.
# [3] = test system: patients diagnosed with adenomyosis; assay: Pilot study of off-label valproic acid in adenomyosis; assay type: in vivo, human; conditions: for relief of dysmenorrhea reported by patients: 3 patients
# From the text: After informed consent, we recruited three patients diagnosed with adenomyosis (FIG. 28). All three patients had moderate to severe dysmenorrehea. They were all married and parous, and had normal menstrual cycles (28-30 days). […] During the recruitment, all patients were offered the option of hysterectomy or the chance to try an experimental drug. They all chose to try the drug and were all given the full explanation of the experimental nature of this study and possible risks associated with it. Approval for this pilot study was obtained from the local ethics committee at Shanghai OB/GYN Hospital, Fudan University. The diagnosis of adenomyosis of all three patients was made based on symptomology, pelvic examination and vaginal ultrasound evaluation by experienced physicians (FIG. 28). […] The treatment was terminated at the end of the 3rd month after taking the drug and the patients were followed up for an additional 3 months. During treatment, clinical signs, symptoms and ultrasound evaluation were closely monitored. Blood counts and biochemistries including liver function tests, ammonium and coagulation studies were performed monthly.
# [4] = Pilot study: safety, tolerability and laboratory monitoring; assay type: in vivo, human
# From the text: The diagnosis of adenomyosis of all three patients was made based on symptomology, pelvic examination and vaginal ultrasound evaluation by experienced physicians (FIG. 28). […] The treatment was terminated at the end of the 3rd month after taking the drug and the patients were followed up for an additional 3 months. During treatment, clinical signs, symptoms and ultrasound evaluation were closely monitored. Blood counts and biochemistries including liver function tests, ammonium and coagulation studies were performed monthly.
# endometrial cells = conditions: immortalized human endometrial stromal cells; cited from earlier work
# [5] = test system: endometrial stromal cells; conditions: in vitro; cited from earlier work
# endometriotic cells = assay: Suppression of growth and inflammation of endometriotic cells; assay type: cell-based; conditions: used alone
# YHES cells = assay: Long-term culture and morphology after treatment; assay type: cell-based, human; conditions: for recovery judged by morphology: four weeks after the treatment, TSA and RU486 at 100 μM
# From the text: The micrographs of the first two rows were taken using 20× magnification, and those of the third row were taken using 10× magnification. The micrographs of the first row and the first two micrographs of second row were obtained using differential inference contrast (DIC) optic; the others were obtained without the DIC optic. […]
# AR [6] = assay: AR mRNA expression by RT-PCR in treated YHES cells; assay type: cell-based, human; conditions: for AR mRNA expression level vs untreated control: 8 h, 18 h and 36 h, TSA 10 μM, CDB 100 μM, NAC 10 mM, semi-quantitative RT-PCR; for AR expression: 36 h of treatment, real-time RT-PCR
# Experimental: (§2) The YHES cells were harvested by trypsinization and seeded in 12-well at 5×10^4 cells/well plates and were pretreated with E2 and P as described above. […] Total RNA was isolated from treated cells using TRIzol reagent (Invitrogen, Carlsbad, Calif.) according to the manufacturer's instructions. The integrity of total RNA was inspected on an agarose gel. One microgram of total RNA from each sample was treated with DNase I to remove potential DNA contamination and then reverse-transcribed using Superscript II Reverse Transcriptase (Invitrogen). First-strand cDNA obtained from RNA samples was stored at −80° C. until use. To measure the mRNA expression levels of AR, PR-A, PR-B, Fas and FasL in each cell culture, semi-quantitative PCR analysis was performed.
# (§3) Quantitative real-time RT-PCR was carried out on an ABI 7900 DNA sequencer (Applied Biosystems), and monitored by SYBR Green I (Qiagen, Valencia, Calif.). The PCR products of the expected size were visualized on a 0.8% agarose gel. The relative mRNA level of each gene was calculated using relative quantitation of gene expression (Applied Biosystems, Foster City, Calif.) with 18s as an endogenous control. The reproducibility of the quantitative measurements was evaluated by two independent cDNA syntheses. The means and standard deviations of the replicated measurements were calculated and presented as mean ±s.d.
# PR-A = PR-A mRNA expression by RT-PCR in treated YHES cells; assay type: cell-based, human; conditions: 8 h, 18 h and 36 h; TSA 10 μM, CDB 100 μM, NAC 10 mM; semi-quantitative RT-PCR
# Experimental: as §2, §3
# PR-B = PR-B mRNA expression by RT-PCR in treated YHES cells; assay type: cell-based, human; conditions: 8 h, 18 h and 36 h; TSA 10 μM, CDB 100 μM, NAC 10 mM; semi-quantitative RT-PCR
# Experimental: as §2, §3
# Fas = Fas mRNA expression by RT-PCR in treated YHES cells; assay type: cell-based, human
# Experimental: as §2, §3
# AR [7] = assay: Western blot of AR protein in treated YHES cells; assay type: cell-based, human; conditions: 16 hrs; TSA 10 μM, CDB 100 μM, NAC 10 mM
# Experimental: Western blot analysis was performed to measure protein expression of β-actin, ERα, ERβ, and AR. […] Whole cell lysate was prepared as previously described (44) by using RIPA lysis buffer containing 50 mM Tris, pH 7.4, 150 mM NaCl, 12 mM EDTA, 1% Triton X-100, 0.5% sodium deoxycholate, and 0.1% SDS. To avoid degradation, a protease inhibitor cocktail III (Sigma) was added at 2%. Total protein was quantified using a BCA protein assay kit (Pierce, Rockford, Ill.). Ten microgram of total protein was separated by electrophoresis on 10% SDS-polyacrylamide gels. The protein was then transferred onto PVDF membranes (Milipore, Bedford, Mass.). […] The blot was then subsequently incubated with primary antibody rabbit anti-human ERα (Santa Cruz Biotechnology, CA), rabbit anti-human ERβ (Zymed Laboratories, South San Francisco, Calif.), rabbit anti-β-actin (Cell Signaling Technology, Beverly, Mass.), or rabbit ant-human AR (Santa Cruz Biotechnology, CA), respectively, in blocking solution (5% nonfat dry milk plus PBS) for 2 hr at room temperature. After washing with PBS plus 0.5% Tween-20, the membranes were then incubated with the secondary antibody goat anti-rabbit IgG (H+L)-HRP (Santa Cruz Biotechnology, CA) at 1:8000 dilution in blocking solution for 2 h at room temperature. […]
# [8] = 18 and 36 h after the treatment
structure (smiles),measurement,setting,value
"C[C@]12CC[C@@H]3c4ccc(O)cc4C[C@@H](CCCCCCCCC[S+]([O-])CCCC(F)(F)C(F)(F)F)[C@H]3[C@@H]1CC[C@@H]2O (stereo partly shown) [ICI, ICI 182780]",increase in proliferation as compared with the control group,[1]; 0.1 μM,about 40%
same,effect on cell proliferation,"[1]; across 100, 10, 1, 0.1 μM",no statistically significant reduction in proliferation
same,effect on H2O2-induced cell proliferation,[2]; 100 μM,did not significantly inhibit
"CCCC(CCC)C(=O)O [VPA, valproic acid]",average reduction of uterus size,"[3]; end of the 3-month treatment, three patients",33%
same,uterus size by physical examination,[3]; end of the 3rd month,slight reduction in uterus size in one patient but no change in the other two
same,pelvic and ultrasound examinations,[3]; one month after taking VPA,no change in uterus size or other conditions
same,relief of dysmenorrhea reported by patients,[3]; three months after taking the drug (end of treatment),all three patients reported complete relief of pain without any need for pain-killers
same,relief of dysmenorrhea reported by patients,"[3]; three months after taking the drug (end of treatment), listed as valproic acid",all three recruited patients reported complete disappearance of dysmenorrhea
same,dysmenorrhea reported by patients,[3]; three months after the discontinuation of the treatment,"2 patients reported disappearance of dysmenorrehea, but 1 reported the return of the same symptom"
same,relief of dysmenorrhea reported by patients,"[3]; two months after taking VPA, oral 500 mg b.i.d. then t.i.d.","2 patients reported complete relief of dysmenorrehea with no need for pain-killers, and 1 reported much relieved pain"
same,tolerability,[4]; 3-month oral VPA,well tolerated
same,serum level of testosterone vs normal range,[4]; end of three month after taking VPA,within the normal range
same,liver function and other biochemistries,"[4]; monthly during treatment, all cases",remained normal
same,effect on cell cycle,endometrial cells,induce cell cycle arrest
same,effect on proliferation,[5],suppressing proliferation of endometrial and endometriotic cells in vitro
Nc1ncn([C@@H]2O[C@H](CO)[C@@H](O)[C@H]2O)c(=O)n1 [5-azacytidine],effect of use alone on growth and inflammation,endometriotic cells,some effect in suppression of growth (but not inflammation)
"CC(=O)O[C@]1(C(C)=O)CC[C@H]2[C@@H]3CCC4=CC(=O)CCC4=C3[C@@H](c3ccc(N(C)C)cc3)C[C@@]21C [CDB, CDB-2914]",effect on cell proliferation,"[1]; 10 μM or lower (10, 1, 0.1 μM)",statistically non-significant inhibition of cell proliferation
same,effect on cell proliferation,[1]; 100 μM (highest concentration),significant suppression of cell proliferation
same,suppression of H2O2-induced cell proliferation,[2]; 100 μM,49%
same,cell morphology,YHES cells; 24 h after the treatment,signs of apparent apoptosis
same,recovery judged by morphology,YHES cells,apparently recovered
same,AR mRNA expression level vs untreated control,AR [6],increased
same,AR expression,AR [6],maintained the increased expression
same,PR-A mRNA expression level vs untreated control,PR-A,increased
same,PR-B mRNA expression level vs untreated control,PR-B,increased
same,Fas expression,Fas; [8],decreased
same,Fas expression,Fas; 8 h after the treatment,increased
same,AR protein level vs control group,AR [7],increased
CC#C[C@]1(O)CC[C@H]2[C@@H]3CCC4=CC(=O)CCC4=C3[C@@H](c3ccc(N(C)C)cc3)C[C@@]21C [RU486],reduction of cell proliferation as compared with controls,[1]; 100 μM,> 95%
same,suppression of H2O2-induced cell proliferation,[2]; 100 μM,75%
"CC(=O)N[C@@H](CS)C(=O)O [NAC, N-acetylcysteine]",suppression of proliferation,[1]; 10 mM,35%
same,suppression of proliferation,[1]; 30 mM,50%
same,suppression of H2O2-induced cell proliferation,[2]; 10 mM,63%
same,recovery judged by morphology,YHES cells,apparently recovered
same,AR mRNA expression level vs untreated control,AR [6],increased
same,AR expression,AR [6],maintained the increased expression
same,PR-A mRNA expression level vs untreated control,PR-A,increased
same,PR-B mRNA expression level vs untreated control,PR-B,increased
same,Fas expression,Fas; [8],decreased
same,Fas expression,Fas; 8 h after the treatment,increased
OO [H2O2],increased cell proliferation,[1]; 1 μM,18%
same,increased cell proliferation,[1]; 10 μM,22%
same,effect on cell proliferation,[1]; 100 μM (highest concentration),induced inhibition of proliferation
